Patent publication US9862998B2, “Conformational probes and methods for sequencing nucleic acids” (Illumina, Inc., priority 2010, dated 2018)
Entries after “also recorded” stand apart in the source; their conditions may differ.

Columns and labels:
Type in all cases: biochemical
[1] = target: T1, 5-TAMRA Pol β (W325C Pol β) (Homo sapiens, UniProt P06746, W325C); test: Stopped-flow 5-TAMRA fluorescence detection of nucleotide incorporation by 5-TAMRA Pol β; conditions: for amplitudes and durations for the 5-TAMRA emission shift: incorporated at an appropriate position in a template-bound primer, FIG. 10, 11, 13
T1 construct: made in house; host or cells: E. coli BL21(DE3)
Experimental: 5-TAMRA Pol β was prepared as follows. Human Pol β was mutated to replace Tryptophan 325 (in the fingers domain) with cysteine to produce W325C Pol β. Standard mutagenesis techniques were used to produce W325C Pol β as described in Example III. The W325C Pol β was cloned in the pET15b plasmid, expressed in E. coli BL21(DE3) cells and purified as described in Dunlap and Tsai, Biochemistry, 41 (37): 11226-11235 (2002), which is incorporated herein by reference. The purified W325C Pol β was chemically modified to introduce the 5-TAMRA fluorescent dye at cysteine 325, thereby producing 5-TAMRA Pol β.
Conformational changes in the 5-TAMRA Pol β enzyme from the open to closed state can be detected based on a fluorescent emission change from the environmentally sensitive 5-TAMRA dye. The spectral and emission intensity changes from the 5-TAMRA dye when the polymerase changes to the closed state. The 5-TAMRA Pol β enzyme can be bound to a primer-template nucleic acid complex in an open conformation. In the open conformation the 5-TAMRA dye when excited with light at a wavelength of 542 nm will emit fluorescence at a wavelength of 568 nm. However upon binding of an appropriate nucleotide to the 5-TAMRA Pol β-primer-template binary complex, the 5-TAMRA Pol β enzyme changes from the open state to the closed state causing the 5-TAMRA dye to experience a different environment. This change in environment results in a detectable fluorescent emission change from the TAMRA dye at the wavelength of 568 nm. As such, binding of the appropriate nucleotide can be detected as a fluorescent emission change at 568 nm wavelength. Furthermore, differential time durations of the closed state can be used to distinguish different nucleotides that are incorporated into the primer by 5-TAMRA Pol β.
The real-time fluorescence change from 5-TAMRA Pol β was measured in the Applied Photophysics SX20 stopped-flow spectrometer by monitoring changes in 5-TAMRA dye fluorescence following the mixing of the 5-TAMRA Pol β-DNA binary complex with a nucleotide in a reaction buffer containing 50 mM Tris-HCl, pH 7.5, 50 mM KCl, 1 mM Dithiothreitol and 5 mM MgCl2 as described in Example III.
(§1) Dual labeled KF was produced as described in Example III. FRET from dual labeled KF was measured by stopped flow kinetics also as described in Example III. 5-TAMRA Pol β was prepared as described in Example IV. The real time fluorescence change from 5-TAMRA Pol β was measured by stopped flow kinetics also as described in Example IV.

[2] = target: Alexa 488 and 532 dual-labeled KF (K550C/L744C/C907G Klenow Fragment) (Escherichia coli, UniProt P00582, C907G/K550C/L744C); design: made in house; host or cells: E. coli BL21(DE3); conditions: for time durations of the FRET signal for incorporation into the primer: AF488 donor fluorescence, stopped flow, FIG. 5-7; for FRET duration, correct versus incorrect incorporation: position complementary to cytosine, dGTP correct, dCTP incorrect, FIG. 8; for AF488 fluorescence duration measured for the incorporation: dTTP versus Gamma-ANS-dTTP, FIG. 12
Chain of Alexa 488 and 532 dual-labeled KF (K550C/L744C/C907G Klenow Fragment) (P00582 324-928 K550C/L744C/C907G): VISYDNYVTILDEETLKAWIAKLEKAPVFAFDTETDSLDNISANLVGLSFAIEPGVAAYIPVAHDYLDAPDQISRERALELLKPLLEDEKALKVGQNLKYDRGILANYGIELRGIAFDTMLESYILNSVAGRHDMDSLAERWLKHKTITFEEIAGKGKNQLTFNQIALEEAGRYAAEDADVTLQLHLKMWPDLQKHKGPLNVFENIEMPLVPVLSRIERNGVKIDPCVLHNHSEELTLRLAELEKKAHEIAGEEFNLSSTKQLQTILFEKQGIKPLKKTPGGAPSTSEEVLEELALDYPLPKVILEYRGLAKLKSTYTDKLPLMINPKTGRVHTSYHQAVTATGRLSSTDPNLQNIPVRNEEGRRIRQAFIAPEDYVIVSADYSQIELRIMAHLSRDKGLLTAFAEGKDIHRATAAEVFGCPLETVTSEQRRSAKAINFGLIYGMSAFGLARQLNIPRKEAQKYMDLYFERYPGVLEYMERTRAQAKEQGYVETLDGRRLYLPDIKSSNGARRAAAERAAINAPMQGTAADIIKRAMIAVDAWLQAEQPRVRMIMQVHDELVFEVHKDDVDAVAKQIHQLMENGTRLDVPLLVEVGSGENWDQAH
Text: The Klenow Fragments (KF) was produced as follows. KF was mutated to replace cysteine 907 with glycine, to replace leucine 744 (in the fingers domain) with cysteine and to replace lysine 550 (in the thumb domain) with cysteine, thereby producing K550C/L744C/C907G KF. Standard mutagenesis techniques were used to produce K550C/L744C/C907G KF as described in the manual of the QuikChange® site-directed mutagenesis kit from Stratagene/Agilent (La Jolla, Calif.). The K550C/L744C/C907G KF was cloned into the pET15b plasmid using the NdeI and BamHI restriction sites, and expressed in E. coli BL21(DE3) cells. The K550C/L744C/[…] KF was purified as described in Joyce, et al. Biochemistry, 47 (23): 6103-6116 (2008), which is incorporated herein by reference. The purified K550C/L744C/C907C KF was chemically modified using the thiol-reactive maleimide to introduce the Alexa488 fluorescent donor dye at cysteine 550
Conformational changes in the dual labeled KF enzyme from the open to closed state can be detected based on fluorescence resonance energy transfer (FRET) between the AF488 fluorescent donor dye on the thumb domain and AF532 fluorescence acceptor dye on the fingers domain. The KF enzyme can be bound to a primer-template nucleic acid complex in an open conformation. In the open conformation the AF488 fluorescent donor dye when excited with light at a wavelength of 495 nm will emit fluorescence at a wavelength of 519 nm. However, upon binding of an appropriate nucleotide to the dual labeled KF-template-primer complex the dual labeled KF enzyme changes from the open state to the closed state. The closed state brings the AF488 fluorescent donor dye on the thumb domain into proximity with the AF532 fluorescence acceptor dye on the finger domain such that the AF488 fluorescent donor dye when excited transfers energy to the AF532 fluorescence acceptor dye. This FRET results in a detectable emission from the AF532 fluorescence acceptor dye at a wavelength of […]. As such, binding of the appropriate nucleotide can be detected as increased emission at 554 nm wavelength. Furthermore, differential time durations of the closed state can be used to distinguish different nucleotides that are incorporated into the primer by dual labeled KF.
The real-time fluorescence change from dual labeled KF was measured in an Applied Photophysics SX20 stopped-flow spectrometer by monitoring changes in AF 488 dye fluorescence following the mixing of the PolI(KF)-DNA binary complex with a nucleotide in the reaction buffer containing 10 mM Tris-HCl, pH 8.0, 50 mM NaCl, 1 mM dithiothreitol and 10 mM MgCl2.
as §1

[3] = test system: nucleic acid duplex of extendable 3'-OH primer and AF488 template; test: FRET-based primer extension assay (AF488 quenching); conditions: AF488 quenching over time by Cy3-dCTP incorporation, FIG. 16
Experimental: Functionality of the Cy3AF647 and CF555AF647 conjugates of RB69V510CE766C were confirmed using a FRET-based primer extension assay as follows. Extension was carried out on a nucleic acid duplex composed of an extendable 3′-OH primer and a template with a 7 base overhang. The extendable sequence was TGGAACG. In addition, the template contained an AF488 dye at the 5′ position. The extension reaction mix was composed of 50 mM ACES pH 7.2, 50 mM NaCl, 10 mM DTT, 10 mM Mg′, 1 μM dTTP, 1 μM dGTP, 1 μM dATP and 0.1 μM Cy3-dCTP. Upon extension, the Cy3 quenches the AF488. The control reactions were carried out under the same conditions except that dTTP was removed to prevent extension. A SpectraMax M5 plate reader was used to monitor the AF488 quenching over time. […] The plot confirms that both conjugates were functional in extending a primed nucleic acid.

1-alpha-borano-dCTP
amplitudes and durations for the 5-TAMRA emission shift [1]: could be distinguished from each other | time durations of the FRET signal for incorporation into the primer [2]: substantially different

Nc1ccn([C@H]2C[C@H](O)[C@@H](COP(O)(=S)OP(=O)(O)OP(=O)(O)O)O2)c(=O)n1 (stereo partly drawn) [1-alpha-thiol-dCTP]
time durations of the FRET signal for incorporation into the primer [2]: substantially different

Nc1ncnc2c1ncn2[C@H]1C[C@H](O)[C@@H](COP(=O)(O)OP(=O)(O)OP(=O)(O)O)O1 [dATP]
amplitudes and durations for the 5-TAMRA emission shift [1]: different amplitudes and durations | time durations of the FRET signal for incorporation into the primer [2]: very similar

Nc1ccn([C@H]2C[C@H](O)[C@@H](COP(=O)(O)OP(=O)(O)OP(=O)(O)O)O2)c(=O)n1 [dCTP]
incorporation detected by wavelength shift for the 5-TAMRA dye ([1]; correct or incorrect nucleotide, FIG. 9A, 9B): could be detected | amplitudes and durations for the 5-TAMRA emission shift [1]: different amplitudes and durations | FRET duration, correct versus incorrect incorporation [2]: could be distinguished

Nc1nc2c(ncn2[C@H]2C[C@H](O)[C@@H](COP(=O)(O)OP(=O)(O)OP(=O)(O)O)O2)c(=O)[nH]1 [dGTP]
amplitudes and durations for the 5-TAMRA emission shift [1]: different amplitudes and durations | time durations of the FRET signal for incorporation into the primer [2]: very similar | FRET duration, correct versus incorrect incorporation [2]: could be distinguished

Cc1cn([C@H]2C[C@H](O)[C@@H](COP(=O)(O)OP(=O)(O)OP(=O)(O)O)O2)c(=O)[nH]c1=O [dTTP]
amplitudes and durations for the 5-TAMRA emission shift [1]: different amplitudes and durations; also recorded: could be distinguished from each other | AF488 fluorescence duration measured for the incorporation [2]: substantially different

O=c1ccn([C@H]2C[C@H](O)[C@@H](COP(=O)(O)OP(=O)(O)OP(=O)(O)O)O2)c(=O)[nH]1 [dUTP]
time durations of the FRET signal for incorporation into the primer [2]: differed

Gamma-ANS-dTTP
amplitudes and durations for the 5-TAMRA emission shift [1]: could be distinguished from each other | AF488 fluorescence duration measured for the incorporation [2]: substantially different

B1: Cy3AF647: RB69V510CE766C polymerase labeled with donor/acceptor pair Cy3/AF647 at cysteine residues (conjugate, UniProt Q38087 1-903, looked up, variant V510C E766C)
DNA-directed DNA polymerase: MKEFYLTVEQIGDSIFERYIDSNGRERTREVEYKPSLFAHCPESQATKYFDIYGKPCTRKLFANMRDASQWIKRMEDIGLEALGMDDFKLAYLSDTYNYEIKYDHTKIRVANFDIEVTSPDGFPEPSQAKHPIDAITHYDSIDDRFYVFDLLNSPYGNVEEWSIEIAAKLQEQGGDEVPSEIIDKIIYMPFDNEKELLMEYLNFWQQKTPVILTGWNVESFDIPYVYNRIKNIFGESTAKRLSPHRKTRVKVIENMYGSREIITLFGISVLDYIDLYKKFSFTNQPSYSLDYISEFELNVGKLKYDGPISKLRESNHQRYISYNIIDVYRVLQIDAKRQFINLSLDMGYYAKIQIQSVFSPIKTWDAIIFNSLKEQNKVIPQGRSHPVQPYPGAFVKEPIPNRYKYVMSFDLTSLYPSIIRQVNISPETIAGTFKVAPLHDYINAVAERPSDVYSCSPNGMMYYKDRDGVVPTEITKVFNQRKEHKGYMLAAQRNGEIIKEALHNPNLSCDEPLDVDYRFDFSDEIKEKIKKLSAKSLNEMLFRAQRTEVAGMTAQINRKLLINSLYGALGNVWFRYYDLRNATAITTFGQMALQWIERKVNEYLNEVCGTEGEAFVLYGDTDSIYVSADKIIDKVGESKFRDTNHWVDFLDKFARERMEPAIDRGFREMCEYMNNKQHLMFMDREAIAGPPLGSKGIGGFWTGKKRYALNVWDMEGTRYAEPKLKIMGLETQKSSTPKAVQKALKECIRRMLQEGEESLQEYFKCFEKEFRQLNYISIASVSSANNIAKYDVGGFPGPKCPFHIRGILTYNRAIKGNIDAPQVVEGEKVYVLPLREGNPFGDKCIAWPSGTEITDLIKDDVLHWMDYTVLLEKTFIKPLEGFTSAAKLDYEKKASLFDMFDF
modifications: Cy3/AF647 dye labels
notes: RB69V510CE766C polymerase labeled with donor/acceptor pair Cy3/AF647 at cysteine residues
functionality in extending a primed nucleic acid [3]: functional

B2: CF555AF647: RB69V510CE766C polymerase labeled with donor/acceptor pair CF555/AF647 at cysteine residues (conjugate, UniProt Q38087 1-903, looked up, variant V510C E766C)
DNA-directed DNA polymerase: MKEFYLTVEQIGDSIFERYIDSNGRERTREVEYKPSLFAHCPESQATKYFDIYGKPCTRKLFANMRDASQWIKRMEDIGLEALGMDDFKLAYLSDTYNYEIKYDHTKIRVANFDIEVTSPDGFPEPSQAKHPIDAITHYDSIDDRFYVFDLLNSPYGNVEEWSIEIAAKLQEQGGDEVPSEIIDKIIYMPFDNEKELLMEYLNFWQQKTPVILTGWNVESFDIPYVYNRIKNIFGESTAKRLSPHRKTRVKVIENMYGSREIITLFGISVLDYIDLYKKFSFTNQPSYSLDYISEFELNVGKLKYDGPISKLRESNHQRYISYNIIDVYRVLQIDAKRQFINLSLDMGYYAKIQIQSVFSPIKTWDAIIFNSLKEQNKVIPQGRSHPVQPYPGAFVKEPIPNRYKYVMSFDLTSLYPSIIRQVNISPETIAGTFKVAPLHDYINAVAERPSDVYSCSPNGMMYYKDRDGVVPTEITKVFNQRKEHKGYMLAAQRNGEIIKEALHNPNLSCDEPLDVDYRFDFSDEIKEKIKKLSAKSLNEMLFRAQRTEVAGMTAQINRKLLINSLYGALGNVWFRYYDLRNATAITTFGQMALQWIERKVNEYLNEVCGTEGEAFVLYGDTDSIYVSADKIIDKVGESKFRDTNHWVDFLDKFARERMEPAIDRGFREMCEYMNNKQHLMFMDREAIAGPPLGSKGIGGFWTGKKRYALNVWDMEGTRYAEPKLKIMGLETQKSSTPKAVQKALKECIRRMLQEGEESLQEYFKCFEKEFRQLNYISIASVSSANNIAKYDVGGFPGPKCPFHIRGILTYNRAIKGNIDAPQVVEGEKVYVLPLREGNPFGDKCIAWPSGTEITDLIKDDVLHWMDYTVLLEKTFIKPLEGFTSAAKLDYEKKASLFDMFDF
modifications: CF555/AF647 dye labels
notes: RB69V510CE766C polymerase labeled with donor/acceptor pair CF555/AF647 at cysteine residues
functionality in extending a primed nucleic acid [3]: functional
